ChEMBL document CHEMBL1125873 (J Med Chem, 1991)

Legend:
[1] = Loss of first equivalent halide ion using Chloride ion electrode experiments.; type: ADME
[2] = Half-life value of the compound.; type: ADME

O=P(O)(NCCCl)NCCCl [PALIFOSFAMIDE]
k x10e3 [1]: 10 min-1 | half-life [2]: 1.15 h
